Laboratory results from ChEMBL document CHEMBL3044688, “Degradation of the Herbicides Thiobencarb, Butachlor and Molinate by a Newly Isolated Aspergillus niger” (J Pestic Sci, 2004).

Assays:
Type in all cases: ADME, organism-based
[1] = test system: Aspergillus niger; test: Drug degradation in Aspergillus niger van Tieghem grown on sucrose-containing Czapek-Dox medium at 100 ppm after 7 days; settings: 168 h
[2] = test system: Aspergillus niger; test: Drug degradation in Aspergillus niger van Tieghem grown on sucrose-containing Czapek-Dox medium at 20 ppm after 7 days; settings: 168 h
[3] = test system: Aspergillus niger; test: Drug degradation in Aspergillus niger van Tieghem grown on Czapek-Dox medium at 20 ppm after 36 hr at 30 degC in presence of 0.5 to 2 g/l NaNO3
[4] = test system: Aspergillus niger; test: Drug degradation in Aspergillus niger van Tieghem grown on Czapek-Dox medium at 20 ppm after 36 hr at 30 degC in presence of 0.01 g/l NaNO3
[5] = test system: Aspergillus niger; test: Drug degradation in Aspergillus niger van Tieghem grown on Czapek-Dox medium at 20 ppm after 36 hr at 30 degC in presence of 1 g/l NaNO3
[6] = test system: Aspergillus niger; test: Drug degradation in Aspergillus niger van Tieghem at 20 ppm after 36 hr at 30 degC

CCNc1nc(NC(C)C)nc(SC)n1 [AMETRYNE]
Stability [1]: Stable

CCCCOCN(C(=O)CCl)c1c(CC)cccc1CC [BUTACHLOR]
Stability [2]: Unstable

CCSC(=O)N1C=CC=CC=C1 [S-ETHYLAZEPINE-1-CARBOTHIOATE]
Stability [1]: Unstable

CCN(CC)C(=O)SCc1ccc(Cl)cc1 [THIOBENCARB]
Stability [3]: Unstable | Stability [4]: Unstable | Stability [5]: Unstable | Stability [6]: Unstable
